# Results published in ChEMBL document CHEMBL1201862, “PubChem BioAssay data set” (2004).
# Several values for one entry are separate records, joined by “and”; a condition that tells them apart may be missing. Equal values may be shown once. Activity calls are given as the source filed them.
# Legend:
# HeLa = experiment: HeLa cell cytotoxicity, dose response, cytotoxicity control, ATP luminescence, cherry-pick samples (AID 687004); type: functional, cell-based; conditions: Homo sapiens
# HepG2 = experiment: HepG2 Cytotoxicity Assay Measured in Cell-Based System Using Plate Reader - 7071-02_Inhibitor_Dose_CherryPick_Activity.; type: functional; conditions: Homo sapiens
# [1] = target: Disintegrin and metalloproteinase domain-containing protein 17 (Homo sapiens, UniProt P78536); experiment: exosite inhibitors of ADAM17, dose response, biochemical (AID 743260)
# [2] = ADAM10 protease inhibitors, dose response, selectivity assay for ADAM17 exosite inhibitor project, biochemical, FRET peptide substrate, recombinant human ADAM10 (AID 743259);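 also: ADAM10 enzyme cleaving a FRET peptide substrate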
# [3] = A549 cell cytotoxicity, dose response, cytotoxicity control, plate reader, cherry-pick, antagonist series (AID 743412); type: functional, cell-based
# [4] = MC4R antagonists, dose response, counter-screen for LGR2 antagonist project, cell-based, plate reader, cherry pick (AID 743444); type: functional;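 also: transfected HEK 293 cells stimulated with alpha-MSH peptide; potency of inhibitors of the alpha-MSH evoked signal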
# [5] = LGR2 antagonists, dose response, cell-based, HEK293, CRE-luciferase reporter, cherry pick, set 2 (AID 743343); type: functional;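 also: transfected cells were stimulated with diluted bursicon conditioned medium after compound addition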
# [6] = HEK293T cytotoxicity, dose response, cytotoxicity control for miR-122 modulator project, cell-based, inhibitor set, cherry-pick, set 2 (AID 720697); type: functional
# [7] = HEK293T cytotoxicity, dose response, cytotoxicity control for miR-122 modulator project, cell-based, activator set, cherry-pick (AID 720690); type: functional;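 also: HEK293T human cells scored for general mammalian cytotoxicity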
# Paired box protein Pax-8 = Paired box protein Pax-8 (Homo sapiens, UniProt Q06710); experiment: inhibitors of PAX8-driven TPO luciferase reporter, dose response, RMG-I cells, cherry-pick (AID 687027); type: functional, cell-based;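 also: luciferase reporter driven by Pax8 target thyroperoxidase promoter measured by SteadyGlo luminescence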
# [8] = inhibitors of CMV-promoter luciferase reporter, dose response, counter-screen for Pax8 inhibitor project, cell-based, HEK293, luminescence, dry powder (AID 743020); type: functional
# [9] = inhibitors of clade B AD8 Env fusion, dose response, cell-based, cherry-pick (AID 652062); type: functional;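 also: luciferase signal from cell-cell fusion driven by HIV-1 clade B AD8 Env; potency is for inhibitors of fusion seen as a drop in luminescence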
# [10] = ZM109 Env clade C HIV-1 fusion inhibitors, dose response, HeLa effector, CEM target cells, luciferase, cherry-pick (AID 652058); type: functional, cell-based
# [11] = CEM21 lymphoblast cell cytotoxicity, dose response, cytotoxicity control for viral fusion inhibitor project, CellTiter-Glo luminescence, cherry-picked (AID 652042); type: functional, cell-based;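 also: potency for signal decrease meaning cytotoxicity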
# [12] = off-target signal loss in HeLa-CEM21 co-culture – HeLa F-luc CTL cells, cherry-picked, counter-screen for HIV-1 Env fusion inhibitor project, dose response (AID 652040); type: functional, cell-based;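 also: potency for signal decrease marking cytotoxic or nonspecific inhibition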
# [13] = inhibitors of HIV Env-driven cell fusion, dose response, cherry-pick (AID 652057); type: functional, cell-based
# [14] = target: Fructose-bisphosphate aldolase (Mycobacterium tuberculosis, UniProt P9WQA3); experiment: Fluorescence-based biochemical high throughput dose response assay for inhibitors of the fructose-bisphosphate aldolase (FBA) of M. tuberculosis.; type: functional
# [15] = target: Metabotropic glutamate receptor 3 (Rattus norvegicus, UniProt P31422); experiment: mGlu3 NAM potency via calcium readout, dose response, mGlu3 NAM project, TREx293 cells, Galpha15, calcium flux (AID 651840); type: functional
# [16] = T. cruzi growth inhibition in host cells, dose response, cell-based, plate reader, dry powder, set 2 (AID 652275); type: functional
# [17] = target: Histone-lysine N-methyltransferase NSD2 (Homo sapiens, UniProt O96028); type: biochemical
# Protein RecA = target: T1, Protein RecA (Mycobacterium tuberculosis, UniProt P9WHJ3); experiment: Fluorescence Cell-Free Homogeneous Dose Retest to Identify Inhibitors of RecA-Intein Splicing Activity. [Related pubchem assays (depositor defined):AID2097, AID2223, AID489010, AID492950]; type: functional
# T1 sequence (P9WHJ3 whole entry): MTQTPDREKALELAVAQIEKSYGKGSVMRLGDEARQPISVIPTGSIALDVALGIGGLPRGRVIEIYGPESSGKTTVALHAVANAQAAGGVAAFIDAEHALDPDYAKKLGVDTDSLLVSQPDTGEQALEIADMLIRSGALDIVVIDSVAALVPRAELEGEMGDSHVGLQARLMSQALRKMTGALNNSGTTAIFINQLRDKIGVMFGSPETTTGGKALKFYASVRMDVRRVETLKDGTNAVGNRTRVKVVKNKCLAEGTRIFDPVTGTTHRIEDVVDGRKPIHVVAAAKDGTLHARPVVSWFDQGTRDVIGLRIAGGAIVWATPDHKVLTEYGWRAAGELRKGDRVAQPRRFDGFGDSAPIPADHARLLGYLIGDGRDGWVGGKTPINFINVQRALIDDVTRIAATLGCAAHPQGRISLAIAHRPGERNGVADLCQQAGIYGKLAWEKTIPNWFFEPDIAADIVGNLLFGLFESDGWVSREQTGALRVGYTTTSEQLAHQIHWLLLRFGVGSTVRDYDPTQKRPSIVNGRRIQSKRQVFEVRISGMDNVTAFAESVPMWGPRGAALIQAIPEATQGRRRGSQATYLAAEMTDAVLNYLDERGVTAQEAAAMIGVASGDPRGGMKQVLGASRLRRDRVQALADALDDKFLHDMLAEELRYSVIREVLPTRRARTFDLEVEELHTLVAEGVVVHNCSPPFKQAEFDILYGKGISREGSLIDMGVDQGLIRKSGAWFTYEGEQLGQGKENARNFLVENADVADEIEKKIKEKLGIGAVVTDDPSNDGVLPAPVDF
# [18] = target: Induced myeloid leukemia cell differentiation protein Mcl-1 (Homo sapiens, UniProt Q07820); type: functional
# cells [19] = experiment: cells
# cells [20] = type: functional, cell-based
# [21] = control 3'UTR Renilla luciferase suppression, dose response, counter-screen for Shn3 inhibitor project, cell-based, Clone20-Shn3RL, cherry-picked (AID 624133); type: functional
# Major prion protein = Major prion protein (Homo sapiens, UniProt P04156); type: functional, cell-based
# [22] = Luminescence Cell-Based Dose Retest to Confirm Inhibitors of Cancer Stem Cells. [Related pubchem assays (depositor defined):AID2717, AID2721]; type: functional; conditions: Homo sapiens
# INS1 = experiment: beta cell apoptosis inhibitors, cytokine rescue, dose response, luminescence, retest (AID 449756); type: functional, cell-based;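 also: cell death triggered by IL-1 beta plus TNF-alpha plus IFN-gamma mixture; protective hits raise ATP signal compared with cytokine alone wells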
# [23] = target: Nuclear receptor subfamily 0 group B member 1 (Homo sapiens, UniProt P51843); type: functional, cell-based;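 also: HEK293T cells transfected with SF-1 and DAX-1 plus StAR promoter luciferase reporter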
# [24] = cytotoxicity in HEK-293T cells, dose response, cytotoxicity control for BCR NF-kB inhibitor project, luminescence, B-cell screen hits (AID 489021); type: functional, cell-based;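 also: HEK-293T cells carrying an NF-kB luciferase reporter; cells exposed to compound for about 14 hours before viability readout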
# [25] = Shn3 3'UTR reporter inhibitors, dose response, cell-based, Clone20 osteoblasts, firefly luciferase, cherry-picked (AID 624132); type: functional;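 also: firefly luciferase luminescence from reporter carrying the Shn3 3'UTR in osteoblasts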
# Vero = experiment: Vero cell toxicity, dose response, cytotoxicity control, plate reader, cherry-pick samples (AID 687020); type: functional, cell-based; conditions: Chlorocebus sabaeus
# BHK-21 = experiment: BHK-21 cell toxicity, dose response, cytotoxicity control, plate reader, cherry-pick samples (AID 687030); type: functional, cell-based; conditions: Mesocricetus auratus
# A549 = experiment: A549 cell toxicity, dose response, cytotoxicity control, plate reader, cherry-pick samples (AID 687028); type: functional, cell-based; conditions: Homo sapiens
# [26] = human group III sPLA2 inhibitors, dose response, biochemical, QFRET, IC50 (AID 743457);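 also: green fluorescence rise as the enzyme cleaves BODIPY PC-A2 in liposomes; potency for inhibition of the enzyme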
# [27] = target: Protein disulfide-isomerase (Homo sapiens, UniProt P07237); experiment: PDI inhibitors, insulin turbidity readout, confirmation, biochemical, dry powder samples, set 2 (AID 652146)
# [28] = target: T2, Heat shock factor protein 1 (Mus musculus, UniProt P38532); experiment: HSF1 potentiators in luciferase reporter cells, confirmation, cell-based, NIH3T3, luminescence, dose retest (AID 435004); type: functional;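 also: stress induced by proteasome inhibitor MG132 added 30 min after compound; luciferase reporter driven by HSF1 response element in NIH3T3 cells; actives raise luminescence as potentiators of the MG132 stress response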
# T2 sequence (P38532 whole entry): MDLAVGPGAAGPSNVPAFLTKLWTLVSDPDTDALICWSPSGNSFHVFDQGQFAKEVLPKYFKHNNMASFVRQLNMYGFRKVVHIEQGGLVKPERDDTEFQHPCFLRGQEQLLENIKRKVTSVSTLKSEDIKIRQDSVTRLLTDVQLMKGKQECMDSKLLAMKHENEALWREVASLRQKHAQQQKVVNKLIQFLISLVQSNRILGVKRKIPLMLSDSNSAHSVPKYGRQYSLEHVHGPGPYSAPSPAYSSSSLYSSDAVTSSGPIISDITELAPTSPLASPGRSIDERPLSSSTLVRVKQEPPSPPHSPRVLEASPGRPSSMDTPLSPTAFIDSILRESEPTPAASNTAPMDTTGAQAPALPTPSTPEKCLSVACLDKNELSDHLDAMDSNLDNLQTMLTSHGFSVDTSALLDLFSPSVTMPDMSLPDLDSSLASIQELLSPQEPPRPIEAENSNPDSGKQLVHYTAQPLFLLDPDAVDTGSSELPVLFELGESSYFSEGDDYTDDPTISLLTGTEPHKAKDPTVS
# [29] = target: T3, Corticotropin-releasing factor receptor 2/Corticotropin-releasing factor-binding protein (Homo sapiens, UniProt P24387+Q13324); experiment: activators of CRF receptor 2 with binding protein – uHTS hits, confirmation (AID 602473); type: functional; conditions: read-out: EC50_Mean
# T3 sequence (Q13324 whole entry): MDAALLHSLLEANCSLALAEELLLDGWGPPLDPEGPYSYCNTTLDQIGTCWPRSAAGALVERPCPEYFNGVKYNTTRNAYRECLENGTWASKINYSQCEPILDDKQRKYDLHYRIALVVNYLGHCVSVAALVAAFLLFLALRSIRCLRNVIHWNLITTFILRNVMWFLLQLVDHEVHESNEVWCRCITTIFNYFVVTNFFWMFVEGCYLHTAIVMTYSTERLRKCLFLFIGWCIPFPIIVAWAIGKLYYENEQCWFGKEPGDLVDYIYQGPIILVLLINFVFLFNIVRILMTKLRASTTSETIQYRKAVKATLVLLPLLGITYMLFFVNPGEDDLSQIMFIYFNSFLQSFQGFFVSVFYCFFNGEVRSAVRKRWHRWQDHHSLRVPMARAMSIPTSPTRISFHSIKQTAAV
# T3 sequence (P24387 whole entry): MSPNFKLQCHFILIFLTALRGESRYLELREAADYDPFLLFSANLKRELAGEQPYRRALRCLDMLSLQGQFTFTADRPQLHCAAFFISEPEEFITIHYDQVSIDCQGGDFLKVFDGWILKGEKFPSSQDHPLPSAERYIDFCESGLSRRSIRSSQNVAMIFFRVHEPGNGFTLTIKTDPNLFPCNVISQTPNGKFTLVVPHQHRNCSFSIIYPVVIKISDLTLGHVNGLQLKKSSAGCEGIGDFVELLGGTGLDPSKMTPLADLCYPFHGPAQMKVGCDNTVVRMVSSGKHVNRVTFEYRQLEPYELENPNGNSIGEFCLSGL
# Beta-galactosidase = Beta-galactosidase (Escherichia coli, UniProt Q8VNN2); experiment: Dose response counterscreen for EBI2 assay utilizing the enzyme, b-galactosidase.; type: functional
# [30] = Late stage assay provider results from the probe development effort to identify inhibitors of the Plasmodium falciparum M17 Leucine Aminopeptidase (M17LAP): radiolabel-based cell-based dose response assay to identify compounds that inhibit P. falciparum growth in RBCs Set 2.; type: functional
# Paired box protein Pax-8, sequence (Q06710 whole entry): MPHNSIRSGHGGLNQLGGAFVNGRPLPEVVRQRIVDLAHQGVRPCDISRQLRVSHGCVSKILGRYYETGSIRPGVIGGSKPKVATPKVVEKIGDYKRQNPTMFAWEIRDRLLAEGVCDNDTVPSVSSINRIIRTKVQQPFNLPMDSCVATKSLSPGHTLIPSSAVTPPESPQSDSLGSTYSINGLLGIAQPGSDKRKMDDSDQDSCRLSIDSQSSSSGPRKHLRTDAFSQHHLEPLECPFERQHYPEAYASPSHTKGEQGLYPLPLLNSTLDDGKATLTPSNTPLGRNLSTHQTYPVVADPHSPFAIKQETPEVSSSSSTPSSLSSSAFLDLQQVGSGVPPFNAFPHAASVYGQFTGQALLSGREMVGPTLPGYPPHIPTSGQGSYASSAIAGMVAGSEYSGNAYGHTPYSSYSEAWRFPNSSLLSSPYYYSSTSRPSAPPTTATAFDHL
# Fructose-bisphosphate aldolase, sequence (P9WQA3 whole entry): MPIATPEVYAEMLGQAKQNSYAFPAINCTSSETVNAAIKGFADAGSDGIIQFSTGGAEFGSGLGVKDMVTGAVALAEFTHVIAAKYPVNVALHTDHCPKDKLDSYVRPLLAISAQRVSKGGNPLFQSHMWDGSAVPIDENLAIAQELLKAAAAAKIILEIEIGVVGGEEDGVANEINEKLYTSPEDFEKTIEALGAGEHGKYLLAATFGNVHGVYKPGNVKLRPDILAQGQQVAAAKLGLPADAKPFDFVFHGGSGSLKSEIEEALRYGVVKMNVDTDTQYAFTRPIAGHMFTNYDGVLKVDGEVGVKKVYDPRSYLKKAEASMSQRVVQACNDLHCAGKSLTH
# Beta-galactosidase, sequence (Q8VNN2 whole entry): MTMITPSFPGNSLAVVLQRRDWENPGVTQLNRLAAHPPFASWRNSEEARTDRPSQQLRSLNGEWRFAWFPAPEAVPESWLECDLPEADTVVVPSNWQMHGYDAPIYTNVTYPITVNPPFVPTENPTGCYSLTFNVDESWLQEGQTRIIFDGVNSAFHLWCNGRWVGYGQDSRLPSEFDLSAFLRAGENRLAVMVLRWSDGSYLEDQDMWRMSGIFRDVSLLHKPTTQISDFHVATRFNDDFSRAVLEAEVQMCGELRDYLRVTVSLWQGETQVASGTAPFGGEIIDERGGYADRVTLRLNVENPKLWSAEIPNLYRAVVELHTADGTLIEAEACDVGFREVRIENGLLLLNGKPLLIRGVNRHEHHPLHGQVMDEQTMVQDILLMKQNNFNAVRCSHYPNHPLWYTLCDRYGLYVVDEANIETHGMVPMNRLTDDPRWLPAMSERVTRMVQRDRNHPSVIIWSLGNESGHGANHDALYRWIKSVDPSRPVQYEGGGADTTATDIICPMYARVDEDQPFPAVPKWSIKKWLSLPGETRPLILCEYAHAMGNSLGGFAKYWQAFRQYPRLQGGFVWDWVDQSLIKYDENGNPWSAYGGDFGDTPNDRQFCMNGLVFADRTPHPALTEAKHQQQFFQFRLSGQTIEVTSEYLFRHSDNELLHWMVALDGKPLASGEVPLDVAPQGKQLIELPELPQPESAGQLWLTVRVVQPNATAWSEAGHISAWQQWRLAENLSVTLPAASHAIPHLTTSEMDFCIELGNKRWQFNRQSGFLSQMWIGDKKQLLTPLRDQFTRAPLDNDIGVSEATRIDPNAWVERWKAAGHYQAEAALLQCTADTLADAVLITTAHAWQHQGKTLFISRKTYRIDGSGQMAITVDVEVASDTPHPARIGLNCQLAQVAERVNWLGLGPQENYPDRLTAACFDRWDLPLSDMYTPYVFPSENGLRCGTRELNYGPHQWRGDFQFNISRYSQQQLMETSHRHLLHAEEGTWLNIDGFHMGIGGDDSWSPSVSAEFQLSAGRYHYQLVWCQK
# Disintegrin and metalloproteinase domain-containing protein 17, sequence (P78536 whole entry, the tested form may be a part): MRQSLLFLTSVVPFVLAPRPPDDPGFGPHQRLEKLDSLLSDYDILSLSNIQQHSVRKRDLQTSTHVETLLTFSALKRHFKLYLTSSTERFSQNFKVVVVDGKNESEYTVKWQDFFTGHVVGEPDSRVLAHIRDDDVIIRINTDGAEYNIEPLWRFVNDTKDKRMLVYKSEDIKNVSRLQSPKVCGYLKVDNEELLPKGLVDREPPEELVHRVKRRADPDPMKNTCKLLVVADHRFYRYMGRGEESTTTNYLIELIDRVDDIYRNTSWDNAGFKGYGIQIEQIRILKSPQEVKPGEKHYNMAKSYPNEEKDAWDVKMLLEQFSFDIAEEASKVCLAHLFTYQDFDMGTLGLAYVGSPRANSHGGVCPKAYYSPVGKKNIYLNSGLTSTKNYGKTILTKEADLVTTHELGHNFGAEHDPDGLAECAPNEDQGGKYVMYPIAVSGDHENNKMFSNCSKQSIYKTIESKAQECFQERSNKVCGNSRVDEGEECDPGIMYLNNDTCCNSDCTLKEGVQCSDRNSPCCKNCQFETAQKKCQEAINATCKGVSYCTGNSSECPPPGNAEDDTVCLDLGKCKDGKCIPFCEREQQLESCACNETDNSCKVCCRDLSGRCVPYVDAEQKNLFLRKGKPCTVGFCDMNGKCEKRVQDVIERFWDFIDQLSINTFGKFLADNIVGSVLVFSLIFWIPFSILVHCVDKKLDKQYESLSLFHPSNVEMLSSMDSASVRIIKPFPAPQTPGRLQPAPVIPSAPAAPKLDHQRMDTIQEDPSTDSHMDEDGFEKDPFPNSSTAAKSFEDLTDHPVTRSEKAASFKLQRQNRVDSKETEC
# Induced myeloid leukemia cell differentiation protein Mcl-1, sequence (Q07820 whole entry): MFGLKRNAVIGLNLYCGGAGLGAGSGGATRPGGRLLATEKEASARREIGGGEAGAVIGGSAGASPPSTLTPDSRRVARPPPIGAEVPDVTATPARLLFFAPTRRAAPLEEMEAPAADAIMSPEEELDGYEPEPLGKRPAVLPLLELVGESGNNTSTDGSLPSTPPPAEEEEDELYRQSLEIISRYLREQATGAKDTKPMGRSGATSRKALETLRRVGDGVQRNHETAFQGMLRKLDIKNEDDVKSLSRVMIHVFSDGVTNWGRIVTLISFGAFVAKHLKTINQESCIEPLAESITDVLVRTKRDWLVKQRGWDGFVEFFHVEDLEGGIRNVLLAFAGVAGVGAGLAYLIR
# Nuclear receptor subfamily 0 group B member 1, sequence (P51843 whole entry): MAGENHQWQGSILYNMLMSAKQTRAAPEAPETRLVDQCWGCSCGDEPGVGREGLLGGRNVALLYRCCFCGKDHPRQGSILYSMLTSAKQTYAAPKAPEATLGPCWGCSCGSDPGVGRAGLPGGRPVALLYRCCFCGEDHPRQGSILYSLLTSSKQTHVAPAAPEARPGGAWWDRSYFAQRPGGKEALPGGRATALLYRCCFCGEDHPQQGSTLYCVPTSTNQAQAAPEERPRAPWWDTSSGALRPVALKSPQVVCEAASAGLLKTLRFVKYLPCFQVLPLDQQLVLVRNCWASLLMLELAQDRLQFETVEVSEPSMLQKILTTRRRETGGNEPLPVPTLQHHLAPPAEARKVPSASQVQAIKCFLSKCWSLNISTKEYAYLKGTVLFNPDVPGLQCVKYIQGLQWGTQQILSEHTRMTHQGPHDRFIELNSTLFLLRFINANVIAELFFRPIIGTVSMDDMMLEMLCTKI
# Histone-lysine N-methyltransferase NSD2, sequence (O96028 whole entry): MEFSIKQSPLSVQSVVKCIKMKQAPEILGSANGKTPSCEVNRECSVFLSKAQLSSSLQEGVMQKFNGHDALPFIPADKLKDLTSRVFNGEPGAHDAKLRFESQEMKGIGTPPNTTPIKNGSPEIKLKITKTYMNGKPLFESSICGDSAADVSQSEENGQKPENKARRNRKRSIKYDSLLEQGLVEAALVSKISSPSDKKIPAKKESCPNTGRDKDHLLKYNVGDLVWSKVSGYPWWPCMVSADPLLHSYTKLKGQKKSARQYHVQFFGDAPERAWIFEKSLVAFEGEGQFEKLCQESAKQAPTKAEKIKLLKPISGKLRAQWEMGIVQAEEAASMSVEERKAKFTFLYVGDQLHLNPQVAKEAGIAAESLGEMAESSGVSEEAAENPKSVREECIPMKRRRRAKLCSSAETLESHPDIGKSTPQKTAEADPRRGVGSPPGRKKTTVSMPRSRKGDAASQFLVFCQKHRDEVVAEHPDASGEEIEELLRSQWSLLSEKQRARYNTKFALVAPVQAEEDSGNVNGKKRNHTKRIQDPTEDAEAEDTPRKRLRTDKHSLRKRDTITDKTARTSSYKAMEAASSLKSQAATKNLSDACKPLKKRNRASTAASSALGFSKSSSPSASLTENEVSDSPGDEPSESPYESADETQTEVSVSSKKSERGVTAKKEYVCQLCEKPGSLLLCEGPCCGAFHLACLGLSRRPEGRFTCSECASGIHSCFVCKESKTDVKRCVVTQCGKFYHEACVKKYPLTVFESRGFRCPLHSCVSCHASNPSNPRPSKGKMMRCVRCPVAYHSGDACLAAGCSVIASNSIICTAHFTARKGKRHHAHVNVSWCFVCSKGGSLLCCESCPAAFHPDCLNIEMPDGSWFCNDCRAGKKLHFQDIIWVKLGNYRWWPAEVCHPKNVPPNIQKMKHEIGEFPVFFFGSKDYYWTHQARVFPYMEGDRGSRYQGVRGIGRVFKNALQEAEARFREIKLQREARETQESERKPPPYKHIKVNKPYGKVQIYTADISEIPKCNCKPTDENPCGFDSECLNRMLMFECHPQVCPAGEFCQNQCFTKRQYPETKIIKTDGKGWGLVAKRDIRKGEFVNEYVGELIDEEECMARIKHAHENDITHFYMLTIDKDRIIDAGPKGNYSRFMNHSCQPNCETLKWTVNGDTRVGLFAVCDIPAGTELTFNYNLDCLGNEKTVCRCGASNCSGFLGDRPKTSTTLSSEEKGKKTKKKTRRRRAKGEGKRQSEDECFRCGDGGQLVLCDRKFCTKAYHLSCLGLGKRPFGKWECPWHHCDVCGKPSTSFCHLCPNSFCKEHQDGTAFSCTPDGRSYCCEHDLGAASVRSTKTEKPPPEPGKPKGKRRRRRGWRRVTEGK
smiles,measurement,setting,value
CN(C[C@H]1N[C@@H](CO)[C@H]1c1ccc(-c2cccc(F)c2)cc1)S(C)(=O)=O,AC50,HeLa,20.3 µM (active)
same,AC50,HepG2,23.7 µM (active)
O=C(NCC(c1ccc(F)cc1)N1CCOCC1)c1ccc(Br)o1 (configuration not stated),IC50,[1],> 69.5 µM (inactive)
same,IC50,[2],> 69.5 µM (inactive)
O=C(NCCc1ccc(Cl)cc1)c1ccc2c(c1)OCCO2,AC50,[3],> 52 µM (inactive)
same,AC50,[4],21.2 µM (active)
same,AC50,[5],20.1 µM (active)
C[C@H](CO)N1C[C@H](C)[C@@H](CN(C)C(=O)c2ccc3c(c2)OCO3)Oc2cc(C#Cc3ccccc3F)ccc2S1(=O)=O,AC50,[6],9.58 µM (active)
same,AC50,[7],17.7 µM (active)
same,AC50,Paired box protein Pax-8,6.89 µM (active)
same,AC50,[8],62.6 µM (active)
Cc1ccc2nc(NC(=O)C3CCN(S(=O)(=O)c4cccs4)CC3)sc2c1,AC50,[9],3.05 µM (active)
same,AC50,[10],13.9 µM (active)
same,AC50,[11],69.6 µM (active)
same,AC50,[12],> 70 µM (inactive)
same,AC50,[13],46.5 µM (active)
N#Cc1c(-c2ccco2)cc(C2CC2)nc1N,IC50,[14],1.43 µM (active)
CCCCC1(O)CCCN(C(=O)c2ccc(C#Cc3ccc(OC)cc3)cc2)C1 (configuration not stated),IC50,[15],2.92 µM
CC(C)N1CC2(CN(CC3CCCCC3)C2)Oc2c(NC(=O)c3ccncc3)cccc2C1=O,AC50,[16],1.18 µM (active)
CCOC(=O)C1CCN(c2nc(N)c3c(N)nc(SCC(=O)O)cc3c2C#N)CC1,AC50,[17],6.04 µM (active)
same,EC50,Protein RecA,> 380 µM (inactive)
same,IC50,[18],4.87 µM (active)
C[C@H]1CCC/C=C/[C@@H]2C[C@H](O)C[C@H]2[C@H](O)/C=C/C(=O)O1 [BREFELDIN A],IC50,cells [19],> 138 µM (inactive)
same,IC50,cells [20],> 67.6 µM (inactive)
same,AC50,[21],10.3 µM (active)
same,IC50,Major prion protein,3.5 µM (active)
same,AC50,[22],< 0.16 µM (active)
same,AC50,"INS1; Rattus norvegicus, INS1",1.03 µM (active)
same,AC50,INS1; ins1,1.06 µM (active)
same,AC50,Paired box protein Pax-8,< 0.26 µM (active)
same,IC50,[23],0.134 µM (active)
same,IC50,[24],> 80 µM (inactive)
same,AC50,[25],3.15 µM (active) and 2.2 µM (active)
COc1ccc(-c2cn(CC[C@@H]3CC[C@H](NC(=O)Nc4ccc(F)cc4)[C@H](CO)O3)nn2)cc1,AC50,Vero,24.2 µM (active)
same,AC50,BHK-21,38.8 µM (active)
same,AC50,A549,21.3 µM (active)
O=C(NNc1nc2cc3c(cc2s1)OCO3)c1ccc(F)cc1,IC50,[26],> 122 µM (inactive)
CCOC(=O)C1(Cc2ccccc2)CCN(Cc2ccc(O)c(Cl)c2)CC1,AC50,[27],> 30 µM (inactive)
CC1(C)CC(=O)C(=CNc2cc(C(=O)c3ccccc3)ccc2/N=C/C2=C(O)CC(C)(C)CC2=O)C(=O)C1,EC50,[28],56.1 µM (active)
same,EC50,[29],> 53 µM (inactive)
same,IC50,Beta-galactosidase,7.97 µM (active)
CCCCOc1ccc(C(C)C(=O)NO)cc1 (configuration not stated),IC50,[30],12.9 µM (inactive)
